From patent publication US20160177395A1, “BIOMARKERS FOR THE PREDICTION OF RENAL INJURY” (priority 2007, published 2016)
Several values for one entry are separate records, joined by “and”; a condition that tells them apart may be missing. Equal entries are not always repeated. Entries after “also recorded” stand apart in the source; their conditions may differ.

Legend:
[1] = system: Sprague-Dawley Crl:CD(SD) rats; assay: Rat toxicity study, single, 5-day and 28-day treatment (clinical observation, clinical pathology, autopsy, organ weights, histopathology);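 note: control rats received saline intraperitoneally, and the organs examined were adrenals, brain, kidneys, liver, spleen and thymus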
[2] = system: kidney tissues of treated or untreated rats; assay: Real-time qRT-PCR of signature amplicons, validation stage, labeled and un-labeled samples (Table 23); details: for H31883_DB71_seg13 normalized qRT-PCR result / MUSCYCG1R_DB81_seg19-20 normalized qRT-PCR result / W41270_DB81_seg11 normalized qRT-PCR result: labeled sample, one line per animal
Outline: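 Each of four signature genes measured as wild-type and alternative-splice amplicons by qRT-PCR in treated or untreated rat kidney. Normalization was two-step: housekeeping-gene factor, then inter-plate correction from shared samples on a shuffled control plate; final values rescaled for display.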

[3] = system: Sprague-Dawley Crl:CD(SD) rats; details: rat, in vivo;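 note: control rats received saline intraperitoneally, and the organs examined were adrenals, brain, kidneys, liver, spleen and thymus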
[4] = day1, female rat kidney, listed as Tob
[5] = day1, male rat kidney, listed as Tob
[6] = day28, female rat kidney, listed as Tob
[7] = day28, male rat kidney, listed as Tob
[8] = labeled samples, day1, kidney of individual male/female rats, listed as Tob
[9] = labeled samples, day5, kidney of individual male/female rats, listed as Tob
[10] = labeled samples, day28, kidney of individual male/female rats, listed as Tob

NC[C@H]1O[C@H](O[C@H]2[C@H](O)[C@@H](O[C@H]3O[C@H](CO)[C@@H](O)[C@H](N)[C@H]3O)[C@H](N)C[C@@H]2N)[C@H](N)C[C@@H]1O [Tobramycin]
Autopsy findings ([1]; 5-day treatment): No effect
Autopsy findings ([1]; 28-day treatment, male and female rats): Enlarged, discolored kidneys; also recorded: Alterations were found in the kidneys; also recorded: ♂: ↑↑, pale
H31883_DB71_seg13 normalized qRT-PCR result [2, 4]: 1.153 and 0.799 and 0.982
MUSCYCG1R_DB81_seg19-20 normalized qRT-PCR result [2, 4]: 5.307 and 1.195 and 1.623
W41270_DB81_seg11 normalized qRT-PCR result [2, 4]: 1.5 and 0.73 and 1.166
H31883_DB71_seg13 normalized qRT-PCR result [2, 5]: 1.126 and 0.999 and 1.049
MUSCYCG1R_DB81_seg19-20 normalized qRT-PCR result [2, 5]: 2.04 and 0.825 and 1.223
W41270_DB81_seg11 normalized qRT-PCR result [2, 5]: 1.43 and 1.083 and 1.619
H31883_DB71_seg13 normalized qRT-PCR result [2, 6]: 0.876 and 0.621 and 0.987
MUSCYCG1R_DB81_seg19-20 normalized qRT-PCR result [2, 6]: 0.959 and 1.021 and 1.478
W41270_DB81_seg11 normalized qRT-PCR result [2, 6]: 1.073 and 1.144 and 1.118
H31883_DB71_seg13 normalized qRT-PCR result [2, 7]: 0.39 and 0.832 and 0.803
MUSCYCG1R_DB81_seg19-20 normalized qRT-PCR result [2, 7]: 0.679 and 1.273 and 1.397
W41270_DB81_seg11 normalized qRT-PCR result [2, 7]: 0.61 and 1.379 and 1.281
H31883_DB71_seg13 normalized qRT-PCR expression (Cyclin-G1 (CCNG1) transcript) [2, 8]: 1.137 and 1.104 and 1.132 and 0.912 and 0.563 and 0.661
MUSCYCG1R_DB81_seg19-20 normalized qRT-PCR expression [2, 8]: 1.582 and 0.967 and 1.506 and 1.173 and 1.025 and 0.987
W41270_DB81_seg11 normalized qRT-PCR expression (tumor necrosis factor receptor superfamily, member 12a transcript) [2, 8]: 1.601 and 1.084 and 0.577 and 0.949 and 0.809 and 0.983
AI045075_DB71_seg6 normalized qRT-PCR expression (Interferon stimulated exonuclease 20 (ISG20) transcript) [2, 9]: 1.327 and 1.644 and 1.614 and 1.367 and 2.402 and 1.224
H31883_DB71_seg13 normalized qRT-PCR expression (Cyclin-G1 (CCNG1) transcript) [2, 9]: 0.863 and 0.855 and 1.237 and 0.988 and 0.858 and 1.646
MUSCYCG1R_DB81_seg19-20 normalized qRT-PCR expression [2, 9]: 0.99 and 1.589 and 0.968 and 1.6 and 1.424 and 2.062
W41270_DB81_seg11 normalized qRT-PCR expression (tumor necrosis factor receptor superfamily, member 12a transcript) [2, 9]: 0.559 and 2.483 and 0.802 and 1.529 and 2.317 and 0.946
W64472_DB81_seg2 normalized qRT-PCR expression (Interferon stimulated exonuclease 20 (ISG20) transcript) [2, 9]: 1.193 and 1.871 and 1.449 and 1.063 and 1.785 and 1.447
W83813_DB81_seg27 normalized qRT-PCR expression [2, 9]: 0.589 and 1.262 and 0.892 and 1.058 and 0.942 and 1.117
H31883_DB71_seg13 normalized qRT-PCR expression (Cyclin-G1 (CCNG1) transcript) [2, 10]: 0.624 and 0.324 and 0.69 and 0.528 and 0.551 and 0.807
MUSCYCG1R_DB81_seg19-20 normalized qRT-PCR expression [2, 10]: 0.713 and 0.76 and 1.087 and 0.889 and 1.268 and 0.903
W41270_DB81_seg11 normalized qRT-PCR expression (tumor necrosis factor receptor superfamily, member 12a transcript) [2, 10]: 1.189 and 1.217 and 1.099 and 1.267 and 1.373 and 1.798
Label: true label (Normal/Toxic), known renal toxic effect ([2]; rat, in vivo): Toxic
Water consumption [3]: Decrease in Tobramycin and Cadmium chloride treated females
